# Results taken from EP1016409B1, “FREEZE DRIED COMPOSITION COMPRISING GLYCOSPHINGOLIPIDS” (KIRIN BEER KABUSHIKI KAISHA, priority 1997, dated 1998).
# Tests used:
# Type in all cases: physicochemical
# [1] = Cooling condition after dissolution with heating 2: turbidity after storage; conditions: lyophilized composition (Polysorbate 20 0.5%, histidine 0.75%, sucrose 5.6%) stored at 50°C for 1 week, reconstituted
# Description: First, Polysorbate 20 was dissolved in distilled water in a concentration of 0.5%, histidine in a concentration of 0.75%, and sucrose in a concentration of 5.6%. Next, 800 mg of the active component (KRN7000) was weighed and stirred in 4 liters of the solvent under heating at 73°C for 30 minutes in order to form a solution. After dissolution, the mixture was divided into about 500 ml portions, cooled rapidly - gradually with stirring under the following six rates:
# After cooling, the mixtures were filtered through a 0.22 µm filter, and transparent colorless glass vials having a volume of 5 ml were charged with a 1 ml portion of each of a variety of solutions thus obtained and subjected to lyophilization. Lyophilization was carried out under the condition of preliminary freezing at -50°C for 5 hours and drying at -15°C for 48 hours, 10°C for 12 hours, and finally at 25°C for 7 hours to give the lyophilized product. The degree of vacuum was set at 0.1 Torr or less during drying step.
# After lyophilization, the lyophilized composition thus obtained was stored at 50°C for 1 week, and the turbidity of the reconstituted solution was measured. In this connection, the turbidity of the lyophilized composition was used which was reconstituted in 1 ml of distilled water for injection and left standing for 30 minutes, and turbidity was measured when the foams generated on reconstitution disappeared.
# The turbidity was measured by the following method: various dilutions including 50-fold dilution (kaolin 2 µg/ml, turbidity 2.00), 100-fold dilution (kaolin 1 µg/ml, turbidity 1.00), and 200-fold dilution (kaolin 0.5 µg/ml, turbidity 0.50) were prepared by diluting the turbidity standard (kaolin, […]) with distilled water. A calibration curve was made by measuring the absorbance at a wave length of 660 nm with a control of distilled water and the various dilutions in a spectrophotometer (HITACHI U-3210). Next, the absorbance of the solutions was measured under the same condition as above to calculate the turbidity of the solutions.
# [2] = Optimal formulation: re-solubility after storage; conditions: lyophilized, KRN7000 200 µg/ml, Polysorbate 20 0.5%
# Description: (§1) First, Polysorbate 20 was dissolved in distilled water in a concentration of 0.5%, and sucrose and histidine or sodium deoxycholate in such concentrations listed on Table 11. Next, 20 mg of the active component (KRN7000) was weighed and stirred in 100 ml of the solvents in a heated bath to 80°C for 20 minutes in order to form a solution. After cooling with running water, the mixture was filtered through a 0.22 µm filter, and transparent colorless glass vials having a volume of 5 ml were charged with a 1 ml portion of each of a variety of solutions thus obtained and subjected to lyophilization. Lyophilization was carried out under the condition of preliminary freezing at -40°C for 2 hours and drying at -20°C for 24 hours, 10°C for 12 hours, and finally at 25°C for 5 hours to give the lyophilized product. The degree of vacuum was set at 0.1 Torr or less during drying step.
# After the lyophilization step, the lyophilized composition thus obtained was stored at 25°C or 50°C. After storage at 25°C for 2 months or at 50°C for 2 weeks, the lyophilized composition was reconstituted in 1 ml of distilled water for injection, left standing for 30 minutes, and solubility was judged when the foams generated on reconstitution disappeared. The samples judged to be solution after storage at 25°C for 2 months were further stored, and judged again of their solubility after storage for 4 months.
# (§2) The solubility was judged by cleaning the outside of the vial and placing it beneath the white light source in a darkroom for observation with naked eye at the position of a luminous intensity of about 5,000 lux. When the sample was clear with no precipitates, it was judged that the active component was dissolved.
# [3] = Excipient appropriate to lyophilization 2: re-solubility after storage; conditions: lyophilized, KRN7000 200 µg/ml, Polysorbate 20 0.5%, 25°C
# Description: The lyophilized preparations having mannitol and sucrose added thereto were observed on their variation with the passage of time.
# as §1, with “and the saccharides were dissolved” for “and sucrose and histidine or sodium deoxycholate”, “concentrations as” for “concentrations”, “listed in” for “listed on”, “Table 7.” for “Table 11.”
# After the lyophilization step, the lyophilized composition was stored at 25°C. After storage for 1 month, the lyophilized composition was reconstituted in 1 ml of distilled water for injection, left standing for 30 minutes, and solubility was judged when the foams generated on reconstitution disappeared. The samples judged in solution were further stored, and judged again of their solubility after 4 months.
# as §2
compound,measurement,setting,value
"CCCCCCCCCCCCCCCCCCCCCCCCCC(=O)N[C@@H](CO[C@H]1O[C@H](CO)[C@H](O)[C@H](O)[C@H]1O)[C@H](O)[C@H](O)CCCCCCCCCCCCCC [KRN7000, (2S,3S,4R)-1-(α-D-galactopyranosyloxy)-2-hexacosanoylamino-3,4-octadecanediol]",Turbidity,"[1]; cooling ① 73°C → 30°C, 4 minutes (10.75°C/min)",2.08
same,Turbidity,"[1]; cooling ② 73°C → 30°C, 6 minutes (7.17°C/min)",2.67
same,Turbidity,"[1]; cooling ③ 73°C → 30°C, 7 minutes (6.14°C/min)",3.31
same,Turbidity,"[1]; cooling ④ 73°C → 30°C, 10 minutes (4.30°C/min)",3.80
same,Turbidity,"[1]; cooling ⑤ 73°C → 30°C, 23 minutes (1.87°C/min)",6.44
same,Turbidity,"[1]; cooling ⑥ 73°C → 30°C, 120 minutes (0.36°C/min)",18.84
same,Re-solubility after storage (by naked eye),"[2]; Sucrose 1.1%, Histidine, 4%, 50°C, 2 weeks",+ (+ not dissolved (or deposited))
same,Re-solubility after storage (by naked eye),"[2]; Sucrose 3.1%, Histidine, 3%, 50°C, 2 weeks",- (- dissolved)
same,Re-solubility after storage (by naked eye),"[2]; Sucrose 3.2%, Histidine, 2%, 50°C, 2 weeks",- (- dissolved)
same,Re-solubility after storage (by naked eye),"[2]; Sucrose 4.8%, Sodium deoxycholate, 0.2%, 25°C, 2 months",+ (+ not dissolved (or deposited))
same,Re-solubility after storage (by naked eye),"[2]; Sucrose 4.8%, Sodium deoxycholate, 0.5%, 25°C, 2 months",- (- dissolved)
same,Re-solubility after storage (by naked eye),"[2]; Sucrose 4.8%, Sodium deoxycholate, 0.5%, 25°C, 4 months",- (- dissolved)
same,Re-solubility after storage (by naked eye),"[2]; Sucrose 4.8%, Sodium deoxycholate, 1%, 25°C, 2 months",- (- dissolved)
same,Re-solubility after storage (by naked eye),"[2]; Sucrose 4.8%, Sodium deoxycholate, 1%, 25°C, 4 months",- (- dissolved)
same,Re-solubility after storage (by naked eye),"[2]; Sucrose 4.8%, Sodium deoxycholate, 2%, 25°C, 2 months",- (- dissolved)
same,Re-solubility after storage (by naked eye),"[2]; Sucrose 4.8%, Sodium deoxycholate, 2%, 25°C, 4 months",- (- dissolved)
same,Re-solubility after storage (by naked eye),"[2]; Sucrose 5.0%, Histidine, 2%, 50°C, 2 weeks",- (- dissolved)
same,Re-solubility after storage (by naked eye),"[2]; Sucrose 5.1%, Histidine, 1%, 50°C, 2 weeks",- (- dissolved)
same,Re-solubility after storage (by naked eye),"[2]; Sucrose 6.9%, Histidine, 1%, 50°C, 2 weeks",- (- dissolved)
same,Re-solubility after storage (by naked eye),"[2]; Sucrose 7.9%, Histidine, 0.5%, 50°C, 2 weeks",+ (+ not dissolved (or deposited))
same,Re-solubility after storage (by naked eye),"[2]; Sucrose 9.6%, Histidine, 2%, 50°C, 2 weeks",- (- dissolved)
same,Re-solubility after storage (by naked eye),"[2]; Sucrose 9.6%, Sodium deoxycholate, 0.2%, 25°C, 2 months",+ (+ not dissolved (or deposited))
same,Re-solubility after storage (by naked eye),"[2]; Sucrose 9.6%, Sodium deoxycholate, 0.5%, 25°C, 2 months",- (- dissolved)
same,Re-solubility after storage (by naked eye),"[2]; Sucrose 9.6%, Sodium deoxycholate, 0.5%, 25°C, 4 months",- (- dissolved)
same,Re-solubility after storage (by naked eye),"[2]; Sucrose 9.6%, Sodium deoxycholate, 1%, 25°C, 2 months",- (- dissolved)
same,Re-solubility after storage (by naked eye),"[2]; Sucrose 9.6%, Sodium deoxycholate, 1%, 25°C, 4 months",- (- dissolved)
same,Re-solubility after storage (by naked eye),"[2]; Sucrose 9.6%, Sodium deoxycholate, 2%, 25°C, 2 months",- (- dissolved)
same,Re-solubility after storage (by naked eye),"[2]; Sucrose 9.6%, Sodium deoxycholate, 2%, 25°C, 4 months",- (- dissolved)
same,Re-solubility after storage (by naked eye),"[2]; Sucrose 19.2%, Sodium deoxycholate, 0.1%, 25°C, 2 months",+ (+ not dissolved (or deposited))
same,Re-solubility after storage (by naked eye),"[2]; Sucrose 19.2%, Sodium deoxycholate, 0.2%, 25°C, 2 months",+ (+ not dissolved (or deposited))
same,Re-solubility after storage (by naked eye),"[2]; Sucrose 19.2%, Sodium deoxycholate, 0.5%, 25°C, 2 months",+ (+ not dissolved (or deposited))
same,Re-solubility after storage (by naked eye),"[2]; Sucrose 19.2%, Sodium deoxycholate, 1%, 25°C, 2 months",+ (+ not dissolved (or deposited))
same,Re-solubility after storage (by naked eye),"[2]; Sucrose 19.2%, Sodium deoxycholate, 2%, 25°C, 2 months",+ (+ not dissolved (or deposited))
same,Re-solubility after storage (by naked eye),"[3]; Mannitol 10%, 1 month",- (- dissolved)
same,Re-solubility after storage (by naked eye),"[3]; Mannitol 10%, 4 months",+ (+ not dissolved (or deposited))
same,Re-solubility after storage (by naked eye),"[3]; Sucrose 9.6%, 1 month",- (- dissolved)
same,Re-solubility after storage (by naked eye),"[3]; Sucrose 9.6%, 4 months",+ (+ not dissolved (or deposited))
